≈ marks a conversion by molar mass, not a printed value. Calls of active or inactive are those of the source. No cut-off for these calls is given here.
Columns and labels:
[1] = system: Candida albicans; assay: Antifungal activity against Candida albicans MTCC 3018 after 24 hrs by well diffusion method; assay type: functional; conditions: MTCC 3018, 24 h
[2] = system: Micrococcus luteus; assay: Antibacterial activity against Micrococcus luteus MTCC 2470 after 24 hrs by well diffusion method; assay type: functional; conditions: MTCC 2470, 24 h
[3] = system: Bacillus subtilis; assay: Antibiofilm activity against Bacillus subtilis MTCC 121 after 24 hrs by crystal violet staining based method; assay type: functional; conditions: MTCC 121, 24 h
[4] = system: Candida albicans; assay: Antifungal activity against Candida albicans MTCC 854 after 24 hrs by well diffusion method; assay type: functional; conditions: MTCC 854, 24 h
[5] = system: Staphylococcus aureus; assay: Antibiofilm activity against Staphylococcus aureus MLS16 MTCC 2940 after 24 hrs by crystal violet staining based method; assay type: functional; conditions: MLS16 MTCC 2940, 24 h
[6] = system: Candida parapsilosis; assay: Antifungal activity against Candida parapsilosis MTCC 1744 after 24 hrs by well diffusion method; assay type: functional; conditions: MTCC 1744, 24 h
[7] = system: Staphylococcus aureus; assay: Induction of intracellular ROS accumulation in Staphylococcus aureus MLS16 MTCC 2940 sessile biofilm cells assessed as fluorescence intensity at 1 ug/ml after 24 hrs by DCFH-DA staining-based fluorescence assay (reference value: 62 +/- 9.8 a.u.); assay type: functional
[8] = system: Candida albicans; assay: Antifungal activity against Candida albicans MTCC 7315 after 24 hrs by well diffusion method; assay type: functional; conditions: MTCC 7315, 24 h
[9] = system: Staphylococcus aureus; assay: Antibacterial activity against Staphylococcus aureus MTCC 96 after 24 hrs by well diffusion method; assay type: functional; conditions: MTCC 96, 24 h
[10] = system: Candida albicans; assay: Antifungal activity against Candida albicans MTCC 183 after 24 hrs by well diffusion method; assay type: functional; conditions: MTCC 183, 24 h
[11] = system: Micrococcus luteus; assay: Antibiofilm activity against Micrococcus luteus MTCC 2470 after 24 hrs by crystal violet staining based method; assay type: functional; conditions: MTCC 2470, 24 h
[12] = system: Candida albicans; assay: Antifungal activity against Candida albicans MTCC 227 after 24 hrs by well diffusion method; assay type: functional; conditions: MTCC 227, 24 h
[13] = system: Escherichia coli; assay: Antibacterial activity against Escherichia coli MTCC 739 after 24 hrs by well diffusion method; assay type: functional; conditions: MTCC 739, 24 h
[14] = system: Pseudomonas aeruginosa; assay: Antibacterial activity against Pseudomonas aeruginosa MTCC 2453 after 24 hrs by well diffusion method; assay type: functional; conditions: MTCC 2453, 24 h
[15] = system: Staphylococcus aureus; assay: Induction of intracellular ROS accumulation in Staphylococcus aureus MLS16 MTCC 2940 sessile biofilm cells assessed as fluorescence intensity at 2 ug/ml after 24 hrs by DCFH-DA staining-based fluorescence assay (reference value: 62 +/- 9.8 a.u.); assay type: functional
[16] = system: Candida albicans; assay: Antifungal activity against Candida albicans MTCC 1637 after 24 hrs by well diffusion method; assay type: functional; conditions: MTCC 1637, 24 h
[17] = system: COLO 205; assay: Cytotoxicity against human COLO205 cells after 24 hrs by MTT assay; assay type: functional, cell-based; conditions: COLO 205, 24 h
[18] = system: Candida albicans; assay: Antifungal activity against Candida albicans MTCC 4748 after 24 hrs by well diffusion method; assay type: functional; conditions: MTCC 4748, 24 h
[19] = system: Staphylococcus aureus; assay: Induction of intracellular ROS accumulation in Staphylococcus aureus MLS16 MTCC 2940 sessile biofilm cells assessed as fluorescence intensity at 3 ug/ml after 24 hrs by DCFH-DA staining-based fluorescence assay (reference value: 62 +/- 9.8 a.u.); assay type: functional
[20] = system: HepG2; assay: Cytotoxicity against human HepG2 cells after 24 hrs by MTT assay; assay type: functional, cell-based; conditions: HepG2, 24 h
[21] = system: Candida albicans; assay: Antibiofilm activity against Candida albicans MTCC 4748 after 24 hrs by crystal violet staining based method; assay type: functional; conditions: MTCC 4748, 24 h
[22] = system: Bacillus subtilis; assay: Antibacterial activity against Bacillus subtilis MTCC 121 after 24 hrs by well diffusion method; assay type: functional; conditions: MTCC 121, 24 h
[23] = system: Staphylococcus aureus; assay: Induction of intracellular ROS accumulation in Staphylococcus aureus MLS16 MTCC 2940 sessile biofilm cells assessed as fluorescence intensity at 4 ug/ml after 24 hrs by DCFH-DA staining-based fluorescence assay (reference value: 62 +/- 9.8 a.u.); assay type: functional
[24] = system: Staphylococcus aureus; assay: Antibiofilm activity against Staphylococcus aureus MTCC 96 after 24 hrs by crystal violet staining based method; assay type: functional; conditions: MTCC 96, 24 h
[25] = system: A549; assay: Cytotoxicity against human A549 cells after 24 hrs by MTT assay; assay type: functional, cell-based; conditions: A549, 24 h
[26] = system: Pichia sporocuriosa; assay: Antifungal activity against Issatchenkia hanoiensis MTCC 4755 after 24 hrs by well diffusion method; assay type: functional; conditions: MTCC 4755, 24 h
[27] = system: Raoultella planticola; assay: Antibiofilm activity against Klebsiella planticola MTCC 530 after 24 hrs by crystal violet staining based method; assay type: functional; conditions: MTCC 530, 24 h
[28] = system: [Candida] aaseri; assay: Antifungal activity against Candida aaseri MTCC 1962 after 24 hrs by well diffusion method; assay type: functional; conditions: Yamadazyma aaseri, MTCC 1962, 24 h
[29] = system: Staphylococcus aureus; assay: Antibacterial activity against Staphylococcus aureus MLS16 MTCC 2940 after 24 hrs by well diffusion method; assay type: functional; conditions: MLS16 MTCC 2940, 24 h
[30] = system: Escherichia coli; assay: Antibiofilm activity against Escherichia coli MTCC 739 after 24 hrs by crystal violet staining based method; assay type: functional; conditions: MTCC 739, 24 h
[31] = system: Candida albicans; assay: Antifungal activity against Candida albicans MTCC 3017 after 24 hrs by well diffusion method; assay type: functional; conditions: MTCC 3017, 24 h
[32] = system: Pichia kudriavzevii; assay: Antifungal activity against Candida krusei MTCC 3020 after 24 hrs by well diffusion method; assay type: functional; conditions: MTCC 3020, 24 h
[33] = system: HeLa; assay: Cytotoxicity against human HeLa cells after 24 hrs by MTT assay; assay type: functional, cell-based
[34] = system: Candida albicans; assay: Antifungal activity against Candida albicans MTCC 3958 after 24 hrs by well diffusion method; assay type: functional; conditions: MTCC 3958, 24 h
[35] = system: Nakaseomyces glabratus; assay: Antifungal activity against Candida glabrata MTCC 3019 after 24 hrs by well diffusion method; assay type: functional; conditions: MTCC 3019, 24 h
[36] = system: Raoultella planticola; assay: Antibacterial activity against Klebsiella planticola MTCC 530 after 24 hrs by well diffusion method; assay type: functional; conditions: MTCC 530, 24 h
[37] = system: A549; assay: Cytotoxicity against human A549 cells at >100 uM after 24 hrs by MTT assay; assay type: functional, cell-based
[38] = system: HepG2; assay: Cytotoxicity against human HepG2 cells at >100 uM after 24 hrs by MTT assay; assay type: functional, cell-based
[39] = system: COLO 205; assay: Cytotoxicity against human COLO205 cells at >100 uM after 24 hrs by MTT assay; assay type: functional, cell-based
[40] = system: HeLa; assay: Cytotoxicity against human HeLa cells at >100 uM after 24 hrs by MTT assay; assay type: functional, cell-based

Compound | MIC [1] [µg/mL] | MIC [2] [µg/mL] | MIC [4] [µg/mL] | MIC [6] [µg/mL] | MIC [8] [µg/mL] | MIC [9] [µg/mL] | MIC [10] [µg/mL] | MIC [12] [µg/mL] | MIC [13] [µg/mL] | MIC [14] [µg/mL] | MIC [16] [µg/mL] | MIC [18] [µg/mL] | MIC [22] [µg/mL] | MIC [26] [µg/mL] | MIC [28] [µg/mL] | MIC [29] [µg/mL] | MIC [31] [µg/mL] | MIC [32] [µg/mL] | MIC [34] [µg/mL] | MIC [35] [µg/mL] | other results
O=C(Cn1nc(C(F)(F)F)c2c(-c3ccccc3)c3ccccc3nc21)NCCN1CCNCC1 | 15.6 (≈ 32.3 µM) | 3.9 (≈ 8.08 µM) | 15.6 (≈ 32.3 µM) | 7.8 (≈ 16.2 µM) | 15.6 (≈ 32.3 µM) | 7.8 (≈ 16.2 µM) | 7.8 (≈ 16.2 µM) | 15.6 (≈ 32.3 µM) | 7.8 (≈ 16.2 µM) | > 125 | 7.8 (≈ 16.2 µM) | 7.8 (≈ 16.2 µM) | 3.9 (≈ 8.08 µM) | 7.8 (≈ 16.2 µM) | 15.6 (≈ 32.3 µM) | 3.9 (≈ 8.08 µM) | 7.8 (≈ 16.2 µM) | 15.6 (≈ 32.3 µM) | 15.6 (≈ 32.3 µM) | 15.6 (≈ 32.3 µM) | IC50 [3]: 2.2 µM; IC50 [5]: 2.1 µM; Flu intensity [7]: 492 a.u.; IC50 [11]: 2.5 µM; Flu intensity [15]: 792 a.u.; IC50 [17]: 12.2 µM; Flu intensity [19]: 101 a.u.; IC50 [20]: 11.2 µM; IC50 [21]: 5.1 µM; Flu intensity [23]: 1342 a.u.; IC50 [24]: 4.1 µM; IC50 [25]: 10.6 µM; IC50 [27]: 2.3 µM; IC50 [30]: 4.2 µM; IC50 [33]: 13.6 µM; MIC [36]: 3.9 µg/mL (≈ 8.08 µM)
O=C(Cn1nc(C(F)(F)F)c2c(-c3ccccc3)c3ccccc3nc21)NC1CC1 | – | 7.8 to 125 (≈ 19 to 305 µM) | – | – | – | 7.8 to 125 (≈ 19 to 305 µM) | – | – | 7.8 to 125 (≈ 19 to 305 µM) | 7.8 to 125 (≈ 19 to 305 µM) | – | – | 7.8 to 125 (≈ 19 to 305 µM) | – | – | 7.8 to 125 (≈ 19 to 305 µM) | – | – | – | – | Activity [37]: inactive; Activity [38]: inactive; Activity [39]: inactive; Activity [40]: inactive; MIC [36]: 7.8 to 125 µg/mL (≈ 19 to 305 µM)
COc1ccc(NC(=O)Cn2nc(C(F)(F)F)c3c(-c4ccccc4)c4ccccc4nc32)cc1 | 62.5 (≈ 131 µM) | 7.8 (≈ 16.4 µM) | 31.2 (≈ 65.5 µM) | 31.2 (≈ 65.5 µM) | 31.2 (≈ 65.5 µM) | 31.2 (≈ 65.5 µM) | 62.5 (≈ 131 µM) | 31.2 (≈ 65.5 µM) | 62.5 (≈ 131 µM) | > 125 | 62.5 (≈ 131 µM) | 62.6 (≈ 131 µM) | 62.5 (≈ 131 µM) | 31.2 (≈ 65.5 µM) | 62.5 (≈ 131 µM) | 62.5 (≈ 131 µM) | 31.2 (≈ 65.5 µM) | 62.5 (≈ 131 µM) | 31.2 (≈ 65.5 µM) | 31.2 (≈ 65.5 µM) | IC50 [17]: 19.6 µM; IC50 [20]: 20.4 µM; IC50 [25]: 18.2 µM; IC50 [33]: 22.2 µM; MIC [36]: 7.8 µg/mL (≈ 16.4 µM)
Clc1ccc(COC(Cn2ccnc2)c2ccc(Cl)cc2Cl)c(Cl)c1 (configuration not stated) [MICONAZOLE] | 7.8 (≈ 18.7 µM) | – | 7.8 (≈ 18.7 µM) | 7.8 (≈ 18.7 µM) | 7.8 (≈ 18.7 µM) | – | 7.8 (≈ 18.7 µM) | 7.8 (≈ 18.7 µM) | – | – | 7.8 (≈ 18.7 µM) | 7.8 (≈ 18.7 µM) | – | 7.8 (≈ 18.7 µM) | 7.8 (≈ 18.7 µM) | – | 7.8 (≈ 18.7 µM) | 7.8 (≈ 18.7 µM) | 7.8 (≈ 18.7 µM) | 7.8 (≈ 18.7 µM) | IC50 [21]: 2.6 µM
